# Assay results as given in patent US20220251036A1, “DIFLUOROHALOALLYLAMINE SULFONE DERIVATIVE INHIBITORS OF LYSYL OXIDASES, METHODS OF PREPARATION, AND USES THEREOF” (PHARMAXIS LTD., priority 2019, published 2022).
# Key:
# [1] = biological target: T1, Human recombinant SSAO/VAP-1 (Homo sapiens, UniProt Q16853); test: SSAO/VAP-1 inhibition; type: biochemical; details: 30 min incubation at 37° C, benzylamine 600 μM
# T1 construct: residues 34-763 of human SSAO/VAP-1; TEV cleavage site (N); made in house
# T1 sequence (Q16853 34-763): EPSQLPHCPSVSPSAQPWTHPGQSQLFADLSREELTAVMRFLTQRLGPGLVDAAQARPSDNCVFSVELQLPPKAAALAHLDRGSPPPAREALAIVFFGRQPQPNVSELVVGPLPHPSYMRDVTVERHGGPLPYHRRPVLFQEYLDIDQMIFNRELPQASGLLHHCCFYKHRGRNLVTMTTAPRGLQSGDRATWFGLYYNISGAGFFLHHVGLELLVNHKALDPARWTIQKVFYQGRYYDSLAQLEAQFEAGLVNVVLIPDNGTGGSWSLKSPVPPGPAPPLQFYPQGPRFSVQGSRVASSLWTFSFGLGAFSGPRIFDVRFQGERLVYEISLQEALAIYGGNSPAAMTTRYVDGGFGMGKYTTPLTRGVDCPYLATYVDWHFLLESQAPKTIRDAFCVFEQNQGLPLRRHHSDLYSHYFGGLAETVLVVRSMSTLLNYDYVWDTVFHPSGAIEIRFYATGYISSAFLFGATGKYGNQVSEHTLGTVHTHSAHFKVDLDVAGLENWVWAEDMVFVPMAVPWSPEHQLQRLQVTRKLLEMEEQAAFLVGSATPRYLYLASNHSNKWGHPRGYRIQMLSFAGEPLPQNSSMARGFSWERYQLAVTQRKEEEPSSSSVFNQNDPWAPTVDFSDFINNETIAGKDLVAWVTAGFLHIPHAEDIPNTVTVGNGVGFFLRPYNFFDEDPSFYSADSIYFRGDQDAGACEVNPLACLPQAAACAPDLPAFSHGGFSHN
# Protocol: Human recombinant SSAO/VAP-1 amine oxidase activity was determined using the coupled colorimetric method as described for monoamine oxidase, copper-containing amine oxidases and related enzymes (Holt A. and Palcic M., A peroxidase-coupled continuous absorbance plate-reader assay for flavin monoamine oxidases, copper-containing amine oxidases and related enzymes. Nat Protoc 2006; 1: 2498-2505). Briefly, a cloned cDNA template corresponding to residues 34-763 of human SSAO/VAP-1, and incorporating a mouse Ig kappa (κ) signal sequence, N-terminal flag epitope tag and tobacco etch virus (TEV) cleavage site, was assembled in a mammalian expression vector (pLO-CMV) by Geneart AG. This vector containing human SSAO/VAP-1 residues was transfected into CHO-K1 glycosylation mutant cell line, Lee 8. A clone stably expressing human SSAO/VAP-1 was isolated and cultured in large scale. Active human SSAO/VAP-1 was purified and recovered using immunoaffinity chromatography. This was used as the source for SSAO/VAP-1 activity. A high-throughput fluorescent assay was developed using either 96 or 384 well format. Briefly, in a standard 96 well plate assay 50 μL of purified human SSAO/VAP-1 (0.25 μg/mL) in 0.1 M sodium phophate buffer (pH 7.4) was added into each well. Test compounds were dissolved in DMSO and tested in a Concentration Response Curve (CRC) with 4-11 data points, typically in the micromolar or nanomolar range after incubation with human SSAO/VAP-1 for 30 min at 37° C. After 30 min incubation, 50 μL of the reaction mixture containing 600 μM benzylamine (Sigma Aldrich), 120 μM Amplex Red (Sigma Aldrich) and 1.5 U/mL horseradish peroxidase (Sigma Aldrich) prepared in 0.1 M sodium phosphate buffer (pH 7.4) were added to the corresponding well. The fluorescence unit (RFU) was read every 2.5 min for 30 min at 37° C. excitation 565 nm and emission 590 (Optima; BMG labtech). The slope of the kinetics for each well was calculated using MARS data analysis software (BMG labtech) and this value was used to deduce the IC50 value (Dotmatics).
# recombinant human MAO-A = biological target: T2, recombinant human MAO-A (Homo sapiens, UniProt P21397); test: MAO-A inhibition; type: biochemical; details: 2 hours incubation, tyramine 100 μM
# T2 construct: purchased Sigma Aldrich
# T2 sequence (P21397 1-527): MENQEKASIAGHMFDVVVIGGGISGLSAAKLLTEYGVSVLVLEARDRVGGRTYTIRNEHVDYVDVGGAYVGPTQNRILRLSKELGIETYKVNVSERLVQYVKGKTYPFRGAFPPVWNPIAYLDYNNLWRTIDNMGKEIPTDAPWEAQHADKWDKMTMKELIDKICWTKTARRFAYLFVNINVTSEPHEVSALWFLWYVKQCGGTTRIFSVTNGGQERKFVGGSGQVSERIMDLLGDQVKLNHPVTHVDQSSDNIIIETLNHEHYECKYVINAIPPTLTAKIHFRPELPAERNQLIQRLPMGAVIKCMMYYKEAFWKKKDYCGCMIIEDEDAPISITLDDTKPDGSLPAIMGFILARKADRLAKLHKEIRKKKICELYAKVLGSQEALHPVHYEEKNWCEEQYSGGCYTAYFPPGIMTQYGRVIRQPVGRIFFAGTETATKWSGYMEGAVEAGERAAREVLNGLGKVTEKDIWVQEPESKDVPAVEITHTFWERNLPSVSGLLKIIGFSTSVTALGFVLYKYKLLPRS
# Protocol: The specificity of the compounds of this invention was tested by determining their ability to inhibit MAO-A activity in vitro, using recombinant human MAO-A (0.003 mg/mL; Sigma Aldrich). The assay was performed in a similar way as for human SSAO/VAP-1 (Example 8) except, the incubation with the test compounds was extended to 2 hours, and the substrate tyramine was used at 100 μM in place of benzylamine.
SMILES,IC50 [1] [µM],IC50 (recombinant human MAO-A) [µM]
"Cc1ccc(S(=O)(=O)C(F)(F)/C(F)=C/CN)cc1 [Compound 6, (Z)-3,4,4-trifluoro-4-tosylbut-2-en-1-amine]",> 30,> 30
"CS(=O)(=O)c1ccc(COc2ccccc2S(=O)(=O)C(F)(F)/C(F)=C/CN)cc1 [Compound 10, (Z)-3,4,4-trifluoro-4-((2-((4-(methylsulfonyl)benzyl)oxy)phenyl)sulfonyl) but-2-en-1-amine]",14.7,4.7
"NC/C=C(\F)C(F)(F)S(=O)(=O)Cc1ccccc1 [Compound 8, (Z)-4-(benzylsulfony1)-3,4,4-trifluorobut-2-en-1-amine]",> 30,> 30
"N#CCCN [BAPN, β-aminopropionitrile, reference compound]",> 30,> 30
"NC/C=C(\F)C(F)(F)S(=O)(=O)c1cccs1 [Compound 14, (Z)-3,4,4-trifluoro-4-(thiophen-2-ylsulfonyl)but-2-en-1-amine]",26.6,
"CNc1ccccc1S(=O)(=O)C(F)(F)/C(F)=C/CN [Compound 4, (Z)-2-((4-amino-1,1,2-trifluorobut-2-en-yl)sulfony1)-N-methylaniline]",18,26.7
"Cc1ccccc1S(=O)(=O)C(F)(F)/C(F)=C/CN [Compound 5, (Z)-3,4,4-trifluoro-4-(o-tolylsulfonyl)but-2-en-1-amine]",> 30,20.2
